Like-named read-outs stand apart in the source and are kept apart here.

The assay relates to M. mycetomatis genome strain MM55. The assay can be described thus: CLSI M38-A2 based in vitro susceptibility screening (XTT or resazurin), growth at fixed concentration. It counts as cell-based, Madurella mycetomatis. Particulars: Madurella mycetomatis.
The mark [1] stands for this setting: 25 uM, mean of three replicates, read-out: Percentage survival at 25um, 25 uM mean.
Setting [2] is: 25 uM, replicate A, read-out: Percentage survival at 25um, 25 um A.
Where [3] appears, read: 25 uM, replicate B, read-out: Percentage survival at 25um, 25 uM B.
The mark [4] stands for this setting: 25 uM, replicate C, read-out: Percentage survival at 25um, 25 uM C.
The mark [5] stands for this setting: 100 uM, first replicate column, read-out: Percentage survival at 100um, 100 uM A.
Setting [6] is: 100 uM, mean of three replicates, read-out: Percentage survival at 100um, 100 uM mean.
[7] abbreviates: 100 uM, second replicate column, read-out: Percentage survival at 100um, 100 uM A.
Setting [8] is: 100 uM, third replicate column, read-out: Percentage survival at 100um, 100 uM A.
[9] abbreviates: 25 uM, mean, read-out: Percentage survival at 25um, 25 uM mean.
[10] abbreviates: 100 uM, mean, read-out: Percentage survival at 100um, 100 uM mean.
The mark [11] stands for this setting: 100 uM, replicate (first column), read-out: Percentage survival at 100um, 100 uM A.
Setting [12] is: 100 uM, replicate (second column), read-out: Percentage survival at 100um, 100 uM A.
Where [13] appears, read: 100 uM, replicate (third column), read-out: Percentage survival at 100um, 100 uM A.
Setting [14] is: 25 uM, mean of replicates, MM55, read-out: Percentage survival at 25um, 25 uM mean.
[15] abbreviates: 25 uM, replicate A, MM55, read-out: Percentage survival at 25um, 25 um A.
Where [16] appears, read: 25 uM, replicate B, MM55, read-out: Percentage survival at 25um, 25 uM B.
[17] abbreviates: 25 uM, replicate C, MM55, read-out: Percentage survival at 25um, 25 uM C.
[18] abbreviates: 100 uM, mean of replicates, MM55, read-out: Percentage survival at 100um, 100 uM mean.
Setting [19] is: 100 uM, replicate 1, MM55, read-out: Percentage survival at 100um, 100 uM A.
[20] abbreviates: 100 uM, replicate 2, MM55, read-out: Percentage survival at 100um, 100 uM A.
The mark [21] stands for this setting: 100 uM, replicate 3, MM55, read-out: Percentage survival at 100um, 100 uM A.
Where [22] appears, read: 25 uM, mean of replicates, read-out: Percentage survival at 25um, 25 uM mean.
The mark [23] stands for this setting: 100 uM, mean of replicates, read-out: Percentage survival at 100um, 100 uM mean.
[24] abbreviates: 100 uM, replicate 1, read-out: Percentage survival at 100um, 100 uM A.
Where [25] appears, read: 100 uM, replicate 2, read-out: Percentage survival at 100um, 100 uM A.
Where [26] appears, read: 100 uM, replicate 3, read-out: Percentage survival at 100um, 100 uM A.
[27] abbreviates: 25 uM, replicate A, M. mycetomatis MM55, read-out: Percentage survival at 25um, 25 um A.
Where [28] appears, read: 100 uM, mean of three, M. mycetomatis MM55, read-out: Percentage survival at 100um, 100 uM mean.
Setting [29] is: 100 uM, replicate 1, M. mycetomatis MM55, read-out: Percentage survival at 100um, 100 uM A (first replicate column).
[30] abbreviates: 100 uM, replicate 2, M. mycetomatis MM55, read-out: Percentage survival at 100um, 100 uM A (second replicate column).
[31] abbreviates: 100 uM, replicate 3, M. mycetomatis MM55, read-out: Percentage survival at 100um, 100 uM A (third replicate column).

`COc1ccc(C2CNC(=O)C2)cc1OC1CCCC1` (centres unmarked) [MMV003738]: the activity at 25 µM runs as follows: under setting [1], 84.1%; under setting [2], 73%; under setting [3], 88.3%; under setting [4], 90.9%. Also, the activity at 100 µM was found to be 78.1% under setting [5], 75% under setting [6], 63% under setting [7] and 84% under setting [8].
As to `CCCNc1ccc(S(=O)(=O)Nc2cc(C)on2)cc1` [MMV1782216], the activity at 25 µM by setting is: under setting [9], 75.9%; under setting [2], 81.9%; under setting [3], 68.5%; under setting [4], 77.2%. Further, the activity at 100 µM is 87.1% under setting [10], 83.4% under setting [11], 74.1% under setting [12] and 104% under setting [13].
Consider `CCCCN1C[C@H](O)[C@@H](O)[C@H](O)[C@H]1CO` [MMV1782098], for which the activity at 25 µM came to 95.7% under setting [14], 96.4% under setting [15], 111% under setting [16] and 79.8% under setting [17]. Also, the activity at 100 µM by setting is: under setting [18], 68%; under setting [19], 94.4%; under setting [20], 27.4%; under setting [21], 82.2%.
Regarding `CC(C)Nc1nc2cc(Cl)c(Cl)cc2n1[C@H]1O[C@@H](CO)[C@H](O)[C@@H]1O` [MMV1593521], the activity at 25 µM is 93.6% under setting [14], 104% under setting [15], 89.6% under setting [16] and 87% under setting [17]. Besides, the activity at 100 µM came to 81.8% under setting [18], 90.8% under setting [19], 82% under setting [20] and 72.5% under setting [21].
As to `O=C(O)c1ccc(-n2nc(-c3ccccc3O)nc2-c2ccccc2O)cc1` [MMV640014], the activity at 25 µM by setting is: under setting [9], 87%; under setting [2], 94.6%; under setting [3], 88.3%; under setting [4], 78%. Moreover, the activity at 100 µM was determined as 78.4% under setting [10], 85.5% under setting [11], 73.2% under setting [12] and 76.5% under setting [13].
Turning to `COc1ccc(SCC(=O)N2c3ccccc3Sc3ccccc32)cc1` [MMV1578573], the activity at 25 µM under setting [22] is 55.5%, the activity at 25 µM under setting [2] was determined as 59.3%, the activity at 25 µM under setting [3] was determined as 58.5% and the activity at 25 µM under setting [4] came to 48.8%. The activity at 100 µM reads like this: under setting [23], 68.5%; under setting [24], 43.6%; under setting [25], 62.3%; under setting [26], 99.7%.
With `CC(C)(C)c1ccc(C(=O)NC(=O)N2CCCc3ccccc32)cc1` [MMV1782212], the activity at 25 µM runs as follows: under setting [9], 78.4%; under setting [2], 90.3%; under setting [3], 74.4%; under setting [4], 70.6%. In addition, the activity at 100 µM by setting is: under setting [10], 81.3%; under setting [11], 68.7%; under setting [12], 79.3%; under setting [13], 95.8%.
As to `CC1(C)[C@H](C(=O)O)N2C(=O)C[C@H]2S1(=O)=O` [MMV637945], the activity at 25 µM came out at 97.1% under setting [27]; 95.1% (read-out: Percentage survival at 25um, 25 uM B); 84.6% (read-out: Percentage survival at 25um, 25 uM C); 92.3% (read-out: Percentage survival at 25um, 25 uM mean). In addition, the activity at 100 µM under setting [28] came out at 98.9%, the activity at 100 µM under setting [29] was 99.5%, the activity at 100 µM under setting [30] was determined as 112% and the activity at 100 µM under setting [31] was found to be 85.4%.
For `O=C(c1cc(O)nc2ccccc12)N1CCN(c2ccccc2)CC1` [MMV596723], the activity at 25 µM stood at 81.5% under setting [1], 85.3% under setting [2], 92.8% under setting [3] and 66.3% under setting [4]. For the same molecule, the activity at 100 µM is, setting by setting: under setting [5], 83.7%; under setting [6], 79.5%; under setting [7], 80.5%; under setting [8], 74.4%.
Regarding `Nc1nc(-c2ccccc2)nc2c1ncn2[C@@H]1O[C@H](COS(=O)(=O)NC(=O)c2ccccc2O)[C@@H](O)[C@H]1O` [MMV1582488], the activity at 25 µM runs as follows: under setting [22], 78%; under setting [2], 74.7%; under setting [3], 83.6%; under setting [4], 75.7%. The activity at 100 µM under setting [23] was determined as 72.1%, the activity at 100 µM under setting [24] was 75.9%, the activity at 100 µM under setting [25] turned out to be 69.3% and the activity at 100 µM under setting [26] turned out to be 71.1%.
Regarding `C[C@H](c1cccc2ccccc12)N(C)Cc1ccccc1` [MMV1782221], the activity at 25 µM (25 uM, mean of three, M. mycetomatis MM55, read-out: Percentage survival at 25um, 25 uM mean) was determined as 60.5%; the activity at 25 µM under setting [27] was determined as 78.4%; the activity at 25 µM (25 uM, replicate B, M. mycetomatis MM55, read-out: Percentage survival at 25um, 25 uM B) came to 99.2%; the activity at 25 µM (25 uM, replicate C, M. mycetomatis MM55, read-out: Percentage survival at 25um, 25 uM C) was 3.87%. The activity at 100 µM was found to be 78.8% under setting [28], 56% under setting [29] and 117% under setting [31]. Under setting [30], the Percent fungal survival at 100 µM was determined as 63.1%.
Take `COc1ccccc1CN[C@H]1C2CCN(CC2)[C@H]1C(c1ccccc1)c1ccccc1` [MMV690480]: the activity at 25 µM is, setting by setting: under setting [1], 83.2%; under setting [2], 61.4%; under setting [3], 107%; under setting [4], 81.2%. Besides, the activity at 100 µM is -1.66% under setting [5], 27.7% under setting [6], 2.79% under setting [7] and 82% under setting [8].
As for `C=C[C@]1(C)C[C@@H](OC(=O)CS[C@@H]2C[C@H]3CC[C@@H](C2)N3C)[C@]2(C)[C@H](C)CC[C@]3(CCC(=O)[C@H]32)[C@@H](C)[C@@H]1O` [MMV1633674], the activity at 25 µM turned out to be 89.3% under setting [22], 84.6% under setting [2], 97.9% under setting [3] and 85.5% under setting [4]. Moreover, the activity at 100 µM is, setting by setting: under setting [23], 48.4%; under setting [24], -3.26%; under setting [25], 61.3%; under setting [26], 87%.
Take `CNC(=O)C1O[C@@H](n2cnc3c(NCc4cccc(I)c4)nc(Cl)nc32)[C@H](O)[C@@H]1O` (some centres unmarked) [MMV1593514]: the activity at 25 µM reads like this: under setting [14], 94.9%; under setting [15], 85.8%; under setting [16], 83.7%; under setting [17], 115%. For the same molecule, the activity at 100 µM under setting [18] worked out at 80.9%, the activity at 100 µM under setting [19] amounted to 74.5%, the activity at 100 µM under setting [20] was found to be 99.3% and the activity at 100 µM under setting [21] came to 68.9%.
For the molecule `CCc1ccccc1OCCN1CCCCCC1` [MMV1633962], the activity at 25 µM reads like this: under setting [1], 60.1%; under setting [2], 47.9%; under setting [3], 69.8%; under setting [4], 62.5%. Also, the activity at 100 µM is, setting by setting: under setting [5], 61.1%; under setting [6], 61.5%; under setting [7], 62.7%; under setting [8], 60.6%.
Take `CN1C(=O)C(c2ccccc2)C(=O)N(c2ccccc2)c2cc(C(F)(F)F)ccc21` (centres unmarked) [MMV1782208]: the activity at 25 µM is, setting by setting: under setting [14], 99.7%; under setting [15], 120%; under setting [16], 99.1%; under setting [17], 80.3%. Further, the activity at 100 µM was determined as 90.1% under setting [18], 94.2% under setting [19], 97.9% under setting [20] and 78.1% under setting [21].

The values above are taken from publication PMC8815882, “Screening the pandemic response box identified benzimidazole carbamates, Olorofim and ravuconazole as promising drug candidates for the treatment of eumycetoma” (PLoS Neglected Tropical Diseases, 2022).
